In US20250282785A1, “PYRROLIDINONE DERIVATIVES AS INHIBITORS OF NF KAPPA B INDUCING KINASE” (priority 2022, published 2025):

Tests used:
[1] = tested on: p-IKKα levels in L363 (NIK translocated multiple myeloma) cells; assay: Effect of compounds on p-IKKα levels in L363 cells (AlphaLISA SureFire Ultra); type: cell-based; conditions: Homo sapiens, L-363; L363 cells, BAFF stimulated, MG132, 6 h; average of values; read-out: Assay 2 IC50
In short: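 Phospho-IKKα (Ser 176/180) was quantified by AlphaLISA in lysed L363 cells after 6 h compound exposure (0.3% DMSO, 11 points, 1:3) alongside 250 ng/ml BAFF and 10 uM MG132, following overnight BAFF priming in low-serum DMEM. Duplicate curves were scaled between BAFF/DMSO/MG132 and unstimulated DMSO wells, then fitted sigmoidally for IC50.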

[2] = target: Recombinant Human NF-Kappab-Inducing Kinase (NIK/MAP3K14) (Homo sapiens, UniProt Q99558); assay: Inhibition of auto-phosphorylation of recombinant human NIK/MAP3K14 (AlphaScreen); type: biochemical; conditions: NIK/MAP3K14 auto-phosphorylation, 5 microM ATP, 1 nM enzyme, 2 h at 25° C.; average of values; read-out: Assay 1 IC50
In short: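 AlphaScreen read-out used anti-phospho-IKK Ser176/180 antibody after 2 h, 25 °C incubation of compound, 1 nM GST-NIK and 5 µM ATP (final DMSO 0.7%). Percent inhibition referenced to high (enzyme) and low (no enzyme, no ATP) controls; sigmoidal curve fitting gave IC50.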

Sequence of Recombinant Human NF-Kappab-Inducing Kinase (NIK/MAP3K14) (Q99558 whole entry): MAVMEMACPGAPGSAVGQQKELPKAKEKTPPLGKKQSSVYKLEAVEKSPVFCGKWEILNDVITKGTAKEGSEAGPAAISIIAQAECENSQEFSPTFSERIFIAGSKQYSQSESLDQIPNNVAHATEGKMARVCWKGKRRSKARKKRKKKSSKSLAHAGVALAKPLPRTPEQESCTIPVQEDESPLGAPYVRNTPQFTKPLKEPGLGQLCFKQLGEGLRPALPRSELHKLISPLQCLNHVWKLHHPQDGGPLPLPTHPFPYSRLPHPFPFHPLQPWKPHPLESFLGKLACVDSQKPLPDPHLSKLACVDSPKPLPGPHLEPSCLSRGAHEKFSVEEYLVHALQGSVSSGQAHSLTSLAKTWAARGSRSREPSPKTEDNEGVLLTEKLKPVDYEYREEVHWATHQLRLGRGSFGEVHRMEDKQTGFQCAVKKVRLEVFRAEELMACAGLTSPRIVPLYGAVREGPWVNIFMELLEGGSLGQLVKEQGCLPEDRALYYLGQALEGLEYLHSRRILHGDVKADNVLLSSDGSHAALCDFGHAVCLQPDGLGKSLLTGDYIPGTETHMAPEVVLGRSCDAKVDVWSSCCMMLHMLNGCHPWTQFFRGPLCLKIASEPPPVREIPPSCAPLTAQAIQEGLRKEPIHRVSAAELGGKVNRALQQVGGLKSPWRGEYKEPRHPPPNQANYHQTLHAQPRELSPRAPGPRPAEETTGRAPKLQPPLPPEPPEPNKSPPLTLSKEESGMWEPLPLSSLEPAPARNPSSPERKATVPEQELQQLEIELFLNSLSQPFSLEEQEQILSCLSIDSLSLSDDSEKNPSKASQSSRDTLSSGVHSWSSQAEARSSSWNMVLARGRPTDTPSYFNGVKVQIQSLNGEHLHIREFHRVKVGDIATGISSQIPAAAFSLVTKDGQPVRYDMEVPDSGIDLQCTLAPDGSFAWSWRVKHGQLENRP

Structure (SMILES) | IC50 [1] [nM] | IC50 [2] [nM]
CN1CC[C@@](O)(c2cc(-c3cccc(-c4nc(C(N)=O)c(N)c(C5CC5)n4)c3)no2)C1=O [Example 132, (R)-5-Amino-6-cyclopropyl-2-(3-(5-(3-hydroxy-1-methyl-2-oxopyrrolidin-3-yl)isoxazol-3-yl)phenyl)pyrimidine-4-carboxamide] | < 100 | < 100
CN1CC[C@@](O)(c2cc(-c3cccc(-c4nc(Nc5ccn(C)n5)c(C(F)(F)F)c(C(N)=O)n4)c3)no2)C1=O [Example 133, (R)-2-(3-(5-(3-Hydroxy-1-methyl-2-oxopyrrolidin-3-yl)isoxazol-3-yl)phenyl)-6-((1-methyl-1H-pyrazol-3-yl)amino)-5-(trifluoromethyl)pyrimidine-4-carboxamide] | > 501 | < 100
CN1CC[C@@](O)(c2cc(-c3cccc(-c4nc(C(N)=O)c5[nH]ccc5n4)c3)no2)C1=O [Example 134, (R)-2-(3-(5-(3-Hydroxy-1-methyl-2-oxopyrrolidin-3-yl)isoxazol-3-yl)phenyl)-5H-pyrrolo[3,2-d]pyrimidine-4-carboxamide] | < 100 | < 100
CN1CC[C@@](O)(c2cc(-c3cccc(-c4ncc(N)c(C(N)=O)n4)c3)no2)C1=O [Example 135, (R)-5-Amino-2-(3-(5-(3-Hydroxy-1-methyl-2-oxopyrrolidin-3-yl)isoxazol-3-yl)phenyl)pyrimidine-4-carboxamide] | < 100 | < 100
COc1nc(-c2cccc(-c3cc([C@]4(O)CCN(C)C4=O)on3)c2)nc(OC)c1N [Example 136, (R)-3-(3-(3-(5-Amino-4,6-dimethoxypyrimidin-2-yl)phenyl)isoxazol-5-yl)-3-hydroxy-1-methylpyrrolidin-2-one] | > 501 | 100 to 500
CN1CC[C@@](O)(c2cc(-c3cccc(-c4ncc(Nc5cnn(C)c5)c(C(N)=O)n4)c3)no2)C1=O [Example 137, (R)-2-(3-(5-(3-Hydroxy-1-methyl-2-oxopyrrolidin-3-yl)isoxazol-3-yl)phenyl)-5-((1-methyl-1H-pyrazol-4-yl)amino)pyrimidine-4-carboxamide] | < 100 | < 100
COc1ncc(-c2cccc(-c3cc([C@]4(O)CCN(C)C4=O)on3)c2)c(C(N)=O)n1 [Example 138, (R)-5-(3-(5-(3-Hydroxy-1-methyl-2-oxopyrrolidin-3-yl)isoxazol-3-yl)phenyl)-2-methoxypyrimidine-4-carboxamide] | > 501 | > 501
CN1CC[C@@](O)(c2cc(-c3cccc(-c4cc5cc[nH]c5c(C(N)=O)n4)c3)no2)C1=O [Example 139, (R)-5-(3-(5-(3-Hydroxy-1-methyl-2-oxopyrrolidin-3-yl)isoxazol-3-yl)phenyl)-1H-pyrrolo[2,3-c]pyridine-7-carboxamide] | < 100 | < 100
CN1CC(F)(F)[C@@](O)(c2cc(-c3ccc(F)c(-c4nc(C(N)=O)c5[nH]ccc5n4)c3)no2)C1=O [Example 140, (R)-2-(5-(5-(4,4-Difluoro-3-hydroxy-1-methyl-2-oxopyrrolidin-3-yl)isoxazol-3-yl)-2-fluorophenyl)-5H-pyrrolo[3,2-d]pyrimidine-4-carboxamide] | < 100 | < 100
CN1CC[C@@](O)(c2cc(-c3cccc(-c4ncc(Nc5cn[nH]c5)c(C(N)=O)n4)c3)no2)C1=O [Example 141, (R)-5-((1H-Pyrazol-4-yl)amino)-2-(3-(5-(3-hydroxy-1-methyl-2-oxopyrrolidin-3-yl)isoxazol-3-yl)phenyl)pyrimidine-4-carboxamide] | < 100 | < 100
Cc1n[nH]c(C)c1Nc1cnc(-c2cccc(-c3cc([C@]4(O)CCN(C)C4=O)on3)c2)nc1C(N)=O [Example 142, (R)-5-((3,5-Dimethyl-1H-pyrazol-4-yl)amino)-2-(3-(5-(3-hydroxy-1-methyl-2-oxopyrrolidin-3-yl)isoxazol-3-yl)phenyl)pyrimidine-4-carboxamide] | 100 to 500 | < 100
CN1CC[C@@](O)(c2cc(-c3cccc(-c4cc5cn[nH]c5c(C(N)=O)n4)c3)no2)C1=O [Example 143, (R)-5-(3-(5-(3-hydroxy-1-methyl-2-oxopyrrolidin-3-yl)isoxazol-3-yl)phenyl)-1H-pyrazolo[3,4-c]pyridine-7-carboxamide] | < 100 | < 100
COc1cn(C)nc1Nc1cnc(-c2cccc(-c3cc([C@]4(O)CCN(C)C4=O)on3)c2)nc1C(N)=O [Example 144, (R)-2-(3-(5-(3-Hydroxy-1-methyl-2-oxopyrrolidin-3-yl)isoxazol-3-yl)phenyl)-5-((4-methoxy-1-methyl-1H-pyrazol-3-yl)amino)pyrimidine-4-carboxamide] | < 100 | < 100
CN1CC[C@@](O)(c2cc(-c3cccc(-c4ncc(Nc5cnn(CC(F)(F)F)c5)c(C(N)=O)n4)c3)no2)C1=O [Example 145, (R)-2-(3-(5-(3-Hydroxy-1-methyl-2-oxopyrrolidin-3-yl)isoxazol-3-yl)phenyl)-5-((1-(2,2,2-trifluoroethyl)-1H-pyrazol-4-yl)amino)pyrimidine-4-carboxamide] | < 100 | < 100
CN1CC[C@@](O)(c2cc(-c3cccc(-c4nccc(C(N)=O)n4)c3)no2)C1=O [Example 146, (R)-2-(3-(5-(3-hydroxy-1-methyl-2-oxopyrrolidin-3-yl)isoxazol-3-yl)phenyl)pyrimidine-4-carboxamide] | > 501 | < 100
CN1CC[C@@](O)(c2cc(-c3cccc(-c4cncc(C(N)=O)n4)c3)no2)C1=O [Example 147, (R)-6-(3-(5-(3-Hydroxy-1-methyl-2-oxopyrrolidin-3-yl)isoxazol-3-yl)phenyl)pyrazine-2-carboxamide] | > 501 | < 100
CN1CC[C@@](O)(c2cc(-c3cccc(-c4cccc(C(N)=O)n4)c3)no2)C1=O [Example 148, (R)-6-(3-(5-(3-Hydroxy-1-methyl-2-oxopyrrolidin-3-yl)isoxazol-3-yl)phenyl)picolinamide] | > 501 | < 100
CN1CC[C@](O)(c2cc(-c3cccc(-c4cccc(C(N)=O)n4)c3)no2)C1=O [Example 149, (S)-6-(3-(5-(3-Hydroxy-1-methyl-2-oxopyrrolidin-3-yl)isoxazol-3-yl)phenyl)picolinamide] | > 501 | > 501
Cc1ccc(-c2cccc(C(N)=O)n2)cc1-c1cc([C@]2(O)CCN(C)C2=O)on1 [Example 150, (R)-6-(3-(5-(3-Hydroxy-1-methyl-2-oxopyrrolidin-3-yl)isoxazol-3-yl)-4-methylphenyl)picolinamide] | > 501 | > 501
Cc1ccc(-c2cc([C@]3(O)CCN(C)C3=O)on2)cc1-c1cccc(C(N)=O)n1 [Example 151, (R)-6-(5-(5-(3-Hydroxy-1-methyl-2-oxopyrrolidin-3-yl)isoxazol-3-yl)-2-methylphenyl)picolinamide] | > 501 | > 501
Cc1cc(-c2cc([C@]3(O)CCN(C)C3=O)on2)cc(-c2cccc(C(N)=O)n2)c1 [Example 152, (R)-6-(3-(5-(3-Hydroxy-1-methyl-2-oxopyrrolidin-3-yl)isoxazol-3-yl)-5-methylphenyl)picolinamide] | > 501 | < 100
COc1cc(-c2cc([C@]3(O)CCN(C)C3=O)on2)cc(-c2cccc(C(N)=O)n2)c1 [Example 153, (R)-6-(3-(5-(3-Hydroxy-1-methyl-2-oxopyrrolidin-3-yl)isoxazol-3-yl)-5-methoxyphenyl)picolinamide] | > 501 | < 100
Cc1ccc(-c2cccc(-c3cc([C@]4(O)CCN(C)C4=O)on3)c2)nc1C(N)=O [Example 154, (R)-6-(3-(5-(3-Hydroxy-1-methyl-2-oxopyrrolidin-3-yl)isoxazol-3-yl)phenyl)-3-methylpicolinamide] | > 501 | < 100
Cc1cc(C(N)=O)nc(-c2cccc(-c3cc([C@]4(O)CCN(C)C4=O)on3)c2)c1 [Example 155, (R)-6-(3-(5-(3-Hydroxy-1-methyl-2-oxopyrrolidin-3-yl)isoxazol-3-yl)phenyl)-4-methylpicolinamide] | 100 to 500 | < 100
Cc1ccc(C(N)=O)nc1-c1cccc(-c2cc([C@]3(O)CCN(C)C3=O)on2)c1 [Example 156, (R)-6-(3-(5-(3-hydroxy-1-methyl-2-oxopyrrolidin-3-yl)isoxazol-3-yl)phenyl)-5-methylpicolinamide] | > 501 | 100 to 500
CN1CC[C@@](O)(c2cc(-c3cccc(-c4cccc(C(N)=O)c4)c3)no2)C1=O [Example 157, (R)-3′-(5-(3-Hydroxy-1-methyl-2-oxopyrrolidin-3-yl)isoxazol-3-yl)-[1,1′-biphenyl]-3-carboxamide] | > 501 | > 501
CN1CC[C@@](O)(c2cc(-c3cccc(-c4nc(C(N)=O)c5ccc(F)cc5n4)c3)no2)C1=O [Example 158, (R)-7-Fluoro-2-(3-(5-(3-hydroxy-1-methyl-2-oxopyrrolidin-3-yl)isoxazol-3-yl)phenyl)quinazoline-4-carboxamide] | > 501 | < 100
Cc1nc(N)c2nc(-c3ccc(-c4cc([C@]5(O)CCN(C)C5=O)on4)o3)ccc2n1 [Example 159, (R)-3-(3-(5-(4-Amino-2-methylpyrido[3,2-d]pyrimidin-6-yl)furan-2-yl)isoxazol-5-yl)-3-hydroxy-1-methylpyrrolidin-2-one] | 100 to 500 | < 100
